Data set [1] deals with indoleamine 2, 3-dioxygenase (IDO1) (Homo sapiens, UniProt P14902). The data set can be described thus: IDO1 PBMC RapidFire MS assay (kynurenine detection by mass spectrometry). The format is cell-based. The following applies: human PBMC stimulated with IFN-γ and LPS, 2 days, pIC50, read-out: PBMC PXC50 (converted). More on the design: to induce the expression of indoleamine 2, 3-dioxygenase (IDO1); host or cells: human PBMC stimulated with IFN-gamma and LPS. The method, boiled down: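 Kynurenine output, read by RapidFire mass spectrometry as ratio to an internal standard, was measured after 2-day compound exposure (11-point, 3-fold dilutions) of human PBMCs induced with 100 ng/ml IFN-γ and 50 ng/ml LPS. Cell viability tracked alongside via ATP luminescence; XC50 from curve fitting.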
indoleamine 2, 3-dioxygenase (IDO1), sequence (P14902 whole entry): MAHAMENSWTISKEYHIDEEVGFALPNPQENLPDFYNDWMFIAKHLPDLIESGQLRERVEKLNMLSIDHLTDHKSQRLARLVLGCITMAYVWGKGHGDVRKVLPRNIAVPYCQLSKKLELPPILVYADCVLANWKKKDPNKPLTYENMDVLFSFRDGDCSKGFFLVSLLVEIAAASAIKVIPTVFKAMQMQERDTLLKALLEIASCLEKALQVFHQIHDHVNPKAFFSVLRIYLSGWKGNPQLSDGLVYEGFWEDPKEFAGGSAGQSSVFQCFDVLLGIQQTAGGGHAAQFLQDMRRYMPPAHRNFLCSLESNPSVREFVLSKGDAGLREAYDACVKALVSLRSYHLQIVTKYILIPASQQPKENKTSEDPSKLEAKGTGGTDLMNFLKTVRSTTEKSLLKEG

Data set [2] concerns human peripheral blood mononuclear cells (PBMC). As to the kind of experiment: PBMC cytotoxicity assay (CellTiter-Glo). The class given is cell-based. As to conditions: 2 days, pCC50. The method, boiled down:
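% cytotoxicity was taken from CellTiter-Glo luminescence, using wells without cells and stimulated DMSO wells as references, and fitted by four-parameter curve to give XC50. Cells were human PBMC at 50,000 per well, activated with 100 ng/ml IFN-γ plus 50 ng/ml LPS. Incubation with 11-point, 3-fold dilution series ran for 2 days at 37 °C.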
In general terms: Cellular ATP, detected with luciferase, serves as a proxy for viable cell number.

Consider `CC(C)CN(CCCCCN=[N+]=[N-])c1ccc([C@H](C)CC(=O)O)cc1Nc1nc(C(F)(F)F)ns1` [Example 94, (R)-3-(4-((5-azidopentyl) (isobutyl)amino)-3-((3-(trifluoromethyl)-1,2,4-thiadiazol-5-yl)amino)phenyl)butanoic Acid], for which the IC50 in data set [1] was 0.00126 µM. For the same compound, the “PBMC TOX PXC50” value in data set [2] is recorded as less than 4.3.
For `Cc1nc(Nc2cc([C@H](C)CC(=O)O)ccc2N(CC(C)C)C2CCOCC2)ccc1Cl` [example 260, (3R)-3-{3-[(5-chloro-6-methylpyridin-2-yl)amino]-4-[(2-methylpropyl)(oxan-4-yl)amino]phenyl}butanoic acid], the IC50 in data set [1] is 0.0398 µM. The “PBMC TOX PXC50” value in data set [2] was less than 5.
For `CO[C@H]1CC[C@@H](N(CC(C)C)c2ccc([C@H](C)CC(=O)O)cc2Nc2ccc(C#N)cn2)CC1` [Example 53, (R)-3-(3-((5-cyanopyridin-2-yl)amino)-4-(isobutyl((1s,4S)-4-methoxycyclohexyl)amino)phenyl)butanoic Acid], in that order: 0.00158 µM and less than 5.
`CONC(=O)C[C@@H](C)c1ccc(N(CC(C)C)C2CCOCC2)c(Nc2nc(C(F)(F)F)ns2)c1` [Example 106, (R)-3-(4-(Isobutyl(tetrahydro-2H-pyran-4-yl)amino)-3-((3-(trifluoromethyl)-1,2,4-thiadiazol-5-yl)amino)phenyl)-N-methoxybutanamide]: the IC50 in data set [1] is 0.00631 µM. Further, in data set [2], the “PBMC TOX PXC50” value was less than 5.
For `CNC(=O)c1nnc(Nc2cc([C@H](C)CC(=O)O)ccc2N(CC(C)C)C2CCOCC2)s1` [example 257, (3R)-3-(3-{[5-(methylcarbamoyl)-1,3,4-thiadiazol-2-yl]amino}-4-[(2-methylpropyl)(oxan-4-yl)amino]phenyl)butanoic acid], in that order: 0.0316 µM and less than 5.
For `CC(C)CN(c1ccc([C@H](C)CC(=O)O)cc1Nc1n[nH]c(C(N)=O)n1)C1CCCCC1` [Example 84, (R)-3-(3-((5-carbamoyl-1H-1,2,4-triazol-3-yl)amino)-4-(cyclohexyl(isobutyl)amino)phenyl)butanoic Acid], in that order: 0.00794 µM and less than 5.
For `CO[C@H]1CC[C@@H](N(CC(C)C)c2ccc([C@H](C)CC(=O)O)cc2Nc2n[nH]c(C3CC3)n2)CC1` [Example 63, (R)-3-(3-((5-cyclopropyl-1H-1,2,4-triazol-3-yl)amino)-4-(isobutyl((cis)-4-methoxycyclohexyl)amino)phenyl)butanoic Acid], in that order: 0.00631 µM and less than 5.
Regarding `CC(C)CN(c1ccc([C@H](C)CC(=O)O)cc1Nc1nc(C(N)=O)c[nH]1)C1CCOCC1` [example 230, (3R)-3-{3-[(4-carbamoyl-1H-imidazol-2-yl)amino]-4-[(2-methylpropyl)(oxan-4-yl)amino]phenyl}butanoic acid], the IC50 in data set [1] is 3.16 µM. Besides, in data set [2], the “PBMC TOX PXC50” value is less than 5.
For `CC(C)CN(c1ccc(C(C)CC(=O)O)cc1Nc1nnc(C(=O)N(C)C)s1)C1CCCCC1` (centres unmarked) [example 244, 3-{4-[cyclohexyl(2-methylpropyl)amino]-3-{[5-(dimethylcarbamoyl)-1,3,4-thiadiazol-2-yl]amino}phenyl}butanoic acid], in that order: 0.0501 µM and 5.7.
For `CC(C)CN(CCCCCNC(=O)OC1CC/C=C/CCC1)c1ccc(C(C)CC(=O)O)cc1Nc1nc(C(F)(F)F)ns1` (centres unmarked) [example 259, 3-(4-{[5-({[(4E)-cyclooct-4-en-1-yloxy]carbonyl}amino)pentyl](2-methylpropyl)amino}-3-{[3-(trifluoromethyl)-1,2,4-thiadiazol-5-yl]amino}phenyl)butanoic acid], in that order: 0.1 µM and less than 4.3.
Turning to `CC(C)CN(c1ccc([C@H](C)CC(=O)NO)cc1Nc1nc(C(F)(F)F)ns1)C1CCOCC1` [example 233, (3R)-N-hydroxy-3-{4-[(2-methylpropyl)(oxan-4-yl)amino]-3-{[3-(trifluoromethyl)-1,2,4-thiadiazol-5-yl]amino}phenyl}butanoic amide], the IC50 in data set [1] was 0.02 µM. Moreover, in data set [2], the “PBMC TOX PXC50” value was less than 5.
For `CO[C@H]1CC[C@H](N(CC(C)C)c2ccc([C@H](C)CC(=O)O)cc2Nc2n[nH]c(C3CC3)n2)CC1` (racemic) [example 221, (3RS)-3-{3-[(5-cyclopropyl-1H-1,2,4-triazol-3-yl)amino]-4-[(2-methylpropyl)[(1rs&,4rs&)-4-methoxycyclohexyl]ami-no]phenyl}butanoic acid], in that order: 0.0398 µM and less than 5.
For `CO[C@H]1CC[C@H](N(CC(C)C)c2ccc([C@H](C)CC(=O)O)cc2Nc2ccc(C#N)cn2)CC1` [Example 56, (R)-3-(3-((5-cyanopyridin-2-yl)amino)-4-(isobutyl((1r,4R)-4-methoxycyclohexyl)amino)phenyl)butanoic Acid], in that order: 0.00398 µM and less than 5.
For `CC(C)CN(CC(C)C)c1ccc([C@H](C)CC(=O)O)cc1Nc1ccc(=O)[nH]c1` [example 217, (3R)-3-{4-[bis(2-methylpropyl)amino]-3-[(6-oxo-1,6-dihydropyridin-3-yl)amino]phenyl}butanoic acid], in that order: 3.98 µM and less than 5.
With `CO[C@H]1CC[C@H](N(CC(C)C)c2ccc([C@H](C)CC(=O)O)cc2Nc2nc(Cl)ns2)CC1` [Example 54, (R)-3-(3-((3-chloro-1,2,4-thiadiazol-5-yl)amino)-4-(isobutyl((1r,4R)-4-methoxycyclohexyl)amino)phenyl)butanoic Acid], in data set [1], the IC50 was 0.002 µM. In data set [2], the “PBMC TOX PXC50” value is less than 5.
For `CC(C)CN(c1ccc([C@H](C)Cc2nnn[nH]2)cc1Nc1nc(C(F)(F)F)ns1)C1CCOCC1` [Example 99, (R)-4-(1-(1H-tetrazol-5-yl)propan-2-yl)-N^1-isobutyl-N^1-(tetrahydro-2H-pyran-4-yl)-N^2-(3-(trifluoromethyl)-1,2,4-thiadiazol-5-yl)benzene-1,2-diamine], in that order: 0.00126 µM and less than 5.
For `CC(C)CN(c1ccc([C@H](C)CC(=O)O)cc1Nc1ccc(C#N)nn1)C1CCOCC1` [Example 24, (R)-3-(3-((6-cyanopyridazin-3-yl)amino)-4-(isobutyl(tetrahydro-2H-pyran-4-yl)amino)phenyl)butanoic Acid], in that order: 0.00251 µM and less than 5.
For `CC(C)CN(c1ccc([C@H](C)CC(=O)O)cc1N(c1cnc(C(=O)O)nc1)c1cnc(C(=O)O)nc1)C1CCOCC1` [example 265, 5-({5-[(2R)-1-carboxypropan-2-yl]-2-[(2-methylpropyl)(oxan-4-yl)amino]phenyl}(2-carboxypyrimidin-5-yl)amino)pyrimidine-2-carboxylic acid], in that order: greater than 10 µM and less than 5.
In the case of `CC(C)CN(c1ccc([C@H](C)CC(=O)O)cc1Nc1ccc(C(F)(F)F)nc1)C1CCOCC1` [Example 7, (R)-3-(4-(isobutyl(tetrahydro-2H-pyran-4-yl)amino)-3-((6-(trifluoromethyl)pyridin-3-yl)amino)phenyl)butanoic Acid], in data set [1], the IC50 is 0.000631 µM. Besides, the “PBMC TOX PXC50” value in data set [2] is given as less than 5.
For `CC(C)CN(CC(C)C)c1ccc(C(C)(C)CC(=O)O)cc1Nc1nc(C(F)(F)F)ns1` [Example 3, 3-(4-(diisobutylamino)-3-((3-(trifluoromethyl)-1,2,4-thiadiazol-5-yl)amino)phenyl)-3-methylbutanoic Acid], in that order: 0.00158 µM and less than 5.
For `CC(C)CN(c1ccc([C@H](C)CC(=O)O)cc1Nc1cnc(Cl)nc1)C1CCOCC1` [Example 10, (R)-3-(3-((2-chloropyrimidin-5-yl)amino)-4-(isobutyl(tetrahydro-2H-pyran-4-yl)amino)phenyl)butanoic Acid], in that order: 0.000794 µM and less than 5.
With `CC(C)CN(c1ccc([C@H](C)CC(=O)O)cc1Nc1n[nH]c(C#N)n1)C1CCOCC1` [example 226, (3R)-3-{3-[(5-cyano-1H-1,2,4-triazol-3-yl)amino]-4-[(2-methylpropyl)(oxan-4-yl)amino]phenyl}butanoic acid], the IC50 in data set [1] is 0.126 µM. The “PBMC TOX PXC50” value in data set [2] is recorded as less than 5.
For `CC(C)CN(c1ccc([C@H](C)CC(=O)O)cc1Nc1n[nH]c(C(F)(F)F)n1)C1CCOCC1` [Example 32, (R)-3-(4-(Isobutyl(tetrahydro-2H-pyran-4-yl)amino)-3-((5-(trifluoromethyl)-1H-1,2,4-triazol-3-yl)amino)phenyl)butanoic Acid], in that order: 0.01 µM and less than 5.
For `COCc1ccc(Nc2cc([C@H](C)CC(=O)O)ccc2N(CC(C)C)[C@H]2CC[C@H](OC)CC2)nc1` (racemic) [example 247, (3RS)-3-(3-{[5-(methoxymethyl)pyridin-2-yl]amino}-4-[(2-methylpropyl)[(1rs&,4rs&)-4-methoxycyclohexyl]ami-no]phenyl)butanoic acid], in that order: 0.0316 µM and less than 5.
For `CC(C)CN(c1ccc([C@H](C)CC(=O)O)cc1Nc1ncc(C(F)(F)F)cn1)C1CCOCC1` [example 241, (3R)-3-{4-[(2-methylpropyl)(oxan-4-yl)amino]-3-{[5-(trifluoromethyl)pyrimi-din-2-yl]amino}phenyl}butanoic acid], in that order: 0.0794 µM and less than 5.

(Values after patent US10899754B2, “Modulators of indoleamine 2,3-dioxygenase” (GLAXOSMITHKLINE INTELLECTUAL PROPERTY DEVELOPMENT LIMITED, priority 2016, dated 2021).)
